One assay relates to OVCAR8. As to the kind of experiment: drug sensitivity score (DSS2) on cancer cell count; higher = more sensitive; extreme values may be limits of the assay. To be noted: 72 h. Summed up: (§1)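 Screen quality was checked by Z', and a drug sensitivity score was derived in Breeze from logistic fits of the cancer cell counts. These counts were obtained by imaging at 10× (4 fields) after fixing and immunostaining for CK8/18 with Hoechst. Before that, ovarian cancer cells, alone or in 1:1 direct co-culture with lung or skin fibroblasts, had been treated for 72 h on 384-well plates acoustically pre-spotted with 528 approved and investigational compounds at 5 concentrations.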

Another assay concerns KURAMOCHI
Described as above. The conditions noted are these: 72 h. In a few lines:
as §1

Setting [1] is: co-cultured fibroblast: BJHTERT.
Setting [2] is: co-cultured fibroblast: none (monoculture).

With `NCCNc1ccc(NCCN)c2c1C(=O)c1ccncc1C2=O` [Pixantrone], the drug sensitivity score with OVCAR8 (setting [1]) is 1.7 DSS; with OVCAR8 (co-cultured fibroblast: WI38), 0 DSS; in the assay on OVCAR8 (setting [2]) it was 0 DSS; with KURAMOCHI (setting [1]) it was 0 DSS; in the assay with KURAMOCHI (co-cultured fibroblast: WI38) it was 0.1 DSS; with KURAMOCHI (setting [2]) it was 9.4 DSS.
Consider `CC[C@]1(O)C[C@H]2CN(CCc3c([nH]c4ccccc34)[C@@](C(=O)OC)(c3cc4c(cc3OC)N(C=O)[C@H]3[C@@](O)(C(=O)OC)[C@H](OC(C)=O)[C@]5(CC)C=CCN6CC[C@]43[C@@H]65)C2)C1` [Vincristine], for which the drug sensitivity score came out at 11.5 DSS in the assay on OVCAR8 (setting [1]); 9.3 DSS in the assay on OVCAR8 (co-cultured fibroblast: WI38); 11.9 DSS in the assay on OVCAR8 (setting [2]); 7.5 DSS in the assay on KURAMOCHI (setting [1]); 5 DSS with KURAMOCHI (co-cultured fibroblast: WI38); 23.4 DSS with KURAMOCHI (setting [2]).
In the case of `CN(C)c1cc2c(cc1Sc1nc3c(N)nccc3n1CCNCC(C)(C)C)OCO2` [CUDC-305], the drug sensitivity score is 16.5 DSS with OVCAR8 (setting [1]); 16.7 DSS with OVCAR8 (co-cultured fibroblast: WI38); 23.2 DSS in the assay on OVCAR8 (setting [2]); 12 DSS in the assay on KURAMOCHI (setting [1]); 14.9 DSS in the assay with KURAMOCHI (co-cultured fibroblast: WI38); 18.4 DSS in the assay with KURAMOCHI (setting [2]).
Regarding `CCn1c(C(=O)N(C2CC2)C2CC2)cc2c3c(ncn3C)c(Nc3cc(C)n(C)n3)nc21`, the drug sensitivity score turned out to be 0 DSS with OVCAR8 (setting [1]); 1.1 DSS with OVCAR8 (co-cultured fibroblast: WI38); 1.3 DSS with OVCAR8 (setting [2]); 3 DSS in the assay on KURAMOCHI (setting [1]); 1.5 DSS in the assay on KURAMOCHI (co-cultured fibroblast: WI38); 0 DSS with KURAMOCHI (setting [2]).
With `CCCCCCCCCCCCCCCCCCOP(=O)([O-])OC1CC[N+](C)(C)CC1` [Perifosine], the drug sensitivity score in the assay with OVCAR8 (setting [1]), in the assay on OVCAR8 (co-cultured fibroblast: WI38), in the assay on OVCAR8 (setting [2]), with KURAMOCHI (setting [1]), in the assay on KURAMOCHI (co-cultured fibroblast: WI38) and with KURAMOCHI (setting [2]) was 0 DSS each time.
Turning to `CCc1cc2c(cc1N1CCC(N3CCOCC3)CC1)C(C)(C)c1[nH]c3cc(C#N)ccc3c1C2=O` [Alectinib], the drug sensitivity score with OVCAR8 (setting [1]), in the assay on OVCAR8 (co-cultured fibroblast: WI38), with OVCAR8 (setting [2]), in the assay with KURAMOCHI (setting [1]), in the assay on KURAMOCHI (co-cultured fibroblast: WI38) and in the assay with KURAMOCHI (setting [2]) was 0 DSS each time.
Turning to `Cc1nc(Nc2ncc(C(=O)Nc3c(C)cccc3Cl)s2)cc(N2CCN(CCO)CC2)n1` [Dasatinib], the drug sensitivity score in the assay with OVCAR8 (setting [1]) is 13.6 DSS; in the assay with OVCAR8 (co-cultured fibroblast: WI38) it was 21.9 DSS; in the assay on OVCAR8 (setting [2]) it was 21.9 DSS; with KURAMOCHI (setting [1]), 18.4 DSS; in the assay on KURAMOCHI (co-cultured fibroblast: WI38), 17 DSS; with KURAMOCHI (setting [2]), 20.4 DSS.
For the compound `CN[C@@H]1C[C@H]2O[C@@](C)([C@@H]1OC)n1c3ccccc3c3c4c(c5c6ccccc6n2c5c31)C(=O)N[C@H]4O` [UCN-01], the drug sensitivity score in the assay with OVCAR8 (setting [1]) is 19.6 DSS; in the assay with OVCAR8 (co-cultured fibroblast: WI38), 14.3 DSS; in the assay on OVCAR8 (setting [2]) it was 17.7 DSS; in the assay with KURAMOCHI (setting [1]), 17 DSS; in the assay with KURAMOCHI (co-cultured fibroblast: WI38), 17.3 DSS; in the assay on KURAMOCHI (setting [2]), 22.7 DSS.
As for `COc1cccc2c1C(=O)c1c(O)c3c(c(O)c1C2=O)C[C@@](O)(C(=O)CO)C[C@@H]3O[C@H]1C[C@H](N)[C@H](O)[C@H](C)O1` [Doxorubicin], the drug sensitivity score with OVCAR8 (setting [1]) came out at 12.5 DSS; in the assay on OVCAR8 (co-cultured fibroblast: WI38), 12.3 DSS; in the assay on OVCAR8 (setting [2]) it was 12.1 DSS; in the assay with KURAMOCHI (setting [1]) it was 10.7 DSS; in the assay with KURAMOCHI (co-cultured fibroblast: WI38) it was 12.7 DSS; with KURAMOCHI (setting [2]) it was 25.1 DSS.
In the case of `CN(C)Cc1ccc(S(=O)(=O)n2ccc(/C=C/C(=O)NO)c2)cc1` [Resminostat], the drug sensitivity score is 18.3 DSS with OVCAR8 (setting [1]); 12.8 DSS with OVCAR8 (co-cultured fibroblast: WI38); 15 DSS in the assay on OVCAR8 (setting [2]); 11 DSS in the assay with KURAMOCHI (setting [1]); 10 DSS in the assay on KURAMOCHI (co-cultured fibroblast: WI38); 10.4 DSS in the assay on KURAMOCHI (setting [2]).
Consider `N#CC1(c2ccc(NC(=O)c3cccnc3NCc3ccncc3)cc2)CCCC1` [Apatinib], for which the drug sensitivity score in the assay with OVCAR8 (setting [1]) turned out to be 0 DSS; in the assay on OVCAR8 (co-cultured fibroblast: WI38) it was 4.9 DSS; in the assay with OVCAR8 (setting [2]), 2.2 DSS; with KURAMOCHI (setting [1]) it was 0 DSS; in the assay on KURAMOCHI (co-cultured fibroblast: WI38), 0 DSS; with KURAMOCHI (setting [2]), 0 DSS.
Turning to `C[C@]1(O)C[C@@H](c2nc(-c3ccc4ccc(-c5ccccc5)nc4c3)c3c(N)nccn32)C1` [Linsitinib], the drug sensitivity score with OVCAR8 (setting [1]) was 0 DSS; in the assay with OVCAR8 (co-cultured fibroblast: WI38), 0 DSS; with OVCAR8 (setting [2]) it was 1.7 DSS; with KURAMOCHI (setting [1]), 0 DSS; in the assay on KURAMOCHI (co-cultured fibroblast: WI38) it was 0 DSS; in the assay with KURAMOCHI (setting [2]) it was 0 DSS.
With `C=C1C[C@@H]2[C@H](CC[C@]3(C)C(=O)CC[C@@H]23)[C@@]2(C)C=CC(=O)C=C12` [Exemestane], the drug sensitivity score with OVCAR8 (setting [1]) worked out at 1.3 DSS; in the assay with OVCAR8 (co-cultured fibroblast: WI38) it was 0 DSS; with OVCAR8 (setting [2]), 0 DSS; in the assay with KURAMOCHI (setting [1]), 0 DSS; in the assay on KURAMOCHI (co-cultured fibroblast: WI38), 0 DSS; in the assay with KURAMOCHI (setting [2]), 0 DSS.
On to `CCC1=C[C@@H]2CN(C1)Cc1c([nH]c3ccccc13)[C@@](C(=O)OC)(c1cc3c(cc1OC)N(C)[C@H]1[C@@](O)(C(=O)OC)[C@H](OC(C)=O)[C@]4(CC)C=CCN5CC[C@]31[C@@H]54)C2` [Vinorelbine], for which the drug sensitivity score amounted to 38.8 DSS with OVCAR8 (setting [1]); 33 DSS in the assay with OVCAR8 (co-cultured fibroblast: WI38); 29.3 DSS with OVCAR8 (setting [2]); 29.3 DSS in the assay on KURAMOCHI (setting [1]); 25.7 DSS in the assay on KURAMOCHI (co-cultured fibroblast: WI38); 25.6 DSS in the assay on KURAMOCHI (setting [2]).
Regarding `Cc1cccc(-c2[nH]c(CNc3ccccc3F)nc2-c2ccc3ncnn3c2)n1` [TEW-7197], the drug sensitivity score was found to be 11.2 DSS in the assay with OVCAR8 (setting [1]); 16.2 DSS in the assay with OVCAR8 (co-cultured fibroblast: WI38); 4.2 DSS with OVCAR8 (setting [2]); 0 DSS with KURAMOCHI (setting [1]); 0 DSS in the assay with KURAMOCHI (co-cultured fibroblast: WI38); 0 DSS with KURAMOCHI (setting [2]).
Consider `CC(=O)N(O)CCCCCNC(=O)CCC(=O)N(O)CCCCCNC(=O)CCC(=O)N(O)CCCCCN` [Deferoxamine], for which the drug sensitivity score in the assay with OVCAR8 (setting [1]) came out at 3.6 DSS; with OVCAR8 (co-cultured fibroblast: WI38), 3.5 DSS; in the assay on OVCAR8 (setting [2]), 7.7 DSS; with KURAMOCHI (setting [1]), 4.5 DSS; with KURAMOCHI (co-cultured fibroblast: WI38) it was 7.3 DSS; in the assay on KURAMOCHI (setting [2]), 1.6 DSS.
In the case of `COc1nc(N)nc2c1ncn2[C@@H]1O[C@H](CO)[C@@H](O)[C@@H]1O` [Nelarabine], the drug sensitivity score in the assay on OVCAR8 (setting [1]) was determined as 1 DSS; in the assay with OVCAR8 (co-cultured fibroblast: WI38), 3.4 DSS; with OVCAR8 (setting [2]) it was 0.3 DSS; in the assay on KURAMOCHI (setting [1]) it was 0 DSS; with KURAMOCHI (co-cultured fibroblast: WI38), 0 DSS; in the assay on KURAMOCHI (setting [2]) it was 0 DSS.
`CNC(=O)c1ccc(C)c(-n2c(C)cc(OCc3ccc(F)cc3F)c(Br)c2=O)c1`: the drug sensitivity score was 0.9 DSS in the assay with OVCAR8 (setting [1]); 0 DSS in the assay on OVCAR8 (co-cultured fibroblast: WI38); 0 DSS with OVCAR8 (setting [2]); 0.6 DSS in the assay on KURAMOCHI (setting [1]); 0 DSS in the assay on KURAMOCHI (co-cultured fibroblast: WI38); 14.9 DSS in the assay on KURAMOCHI (setting [2]).
Consider `COc1cc([C@@H]2c3cc4c(cc3[C@@H](O[C@@H]3O[C@@H]5CO[C@@H](C)O[C@H]5[C@H](O)[C@H]3O)[C@H]3COC(=O)[C@H]23)OCO4)cc(OC)c1O` [Etoposide], for which the drug sensitivity score with OVCAR8 (setting [1]) came to 11.8 DSS; with OVCAR8 (co-cultured fibroblast: WI38) it was 13.1 DSS; in the assay with OVCAR8 (setting [2]), 13.9 DSS; in the assay on KURAMOCHI (setting [1]), 11.7 DSS; in the assay on KURAMOCHI (co-cultured fibroblast: WI38), 13.8 DSS; in the assay on KURAMOCHI (setting [2]), 16.1 DSS.
Regarding `C[C@H](Nc1ncnc2nc[nH]c12)c1cc2cccc(Cl)c2c(=O)n1-c1ccccc1` [Duvelisib], the drug sensitivity score in the assay with OVCAR8 (setting [1]) worked out at 0.4 DSS; in the assay with OVCAR8 (co-cultured fibroblast: WI38) it was 0 DSS; with OVCAR8 (setting [2]), 0 DSS; in the assay with KURAMOCHI (setting [1]), 4.6 DSS; with KURAMOCHI (co-cultured fibroblast: WI38), 0.5 DSS; with KURAMOCHI (setting [2]) it was 0.3 DSS.

Source of the values: the supplement of paper PMC12420376.
